pIC50: −log10 of the molar value.
Legend:
acetylcholinesterase = conditions: cited from earlier work; for pIC50: read-out: anti-acetylcholinesterase activity IC50
[1] = biological target: T1, Acetylcholinesterase (AChE) (Homo sapiens, UniProt P22303); experiment: biochemical; conditions: Ellman method, pH 8.0, 37 °C, absorbance at 405 nm; read-out: acetylcholinesterase inhibitory activity IC50
T1 construct: purchased Sigma-Aldrich
Protocol: Acetylcholinesterase (AChE, Sigma-Aldrich, Saint Louis, MO, USA, 0.1 U/mL), acetylthiocholine iodide, dithiobisnitrobenzoic acid (DTNB), and tacrine were bought from Sigma-Aldrich.
The AChE inhibitory activity was evaluated based on the protocol developed by Ellman et al. [33]. The enzymatic reactions were conducted in 96-well microplates. The following were added to each well: 110 μL phosphate buffer (pH 8.0), 40 μL AChE, and the tested compounds (dissolved in 10 μL DMSO). The microplates were then incubated in 37 °C for 20 min. […] Then, the absorbance at 405 nm was detected after 1 h. Seven different concentrations and three replications per concentration for each compound were tested.

[2] = test system: murine monocytic RAW264.7 macrophage cells; experiment: Anti-inflammatory assay: NO production by the Griess method; type: cell-based; conditions: LPS (0.5 µg/mL)-stimulated RAW264.7 cells, NO content
Protocol: The content of NO was determined by the Griess method. Briefly, the murine monocytic RAW264.7 macrophage cells in logarithmic growth phase were diluted to 1 × 10^5 cells/mL. Then, 100 µL of cell dilution was seeded into the 96-well plates and incubated overnight at 37 °C in a humid atmosphere with 5% CO2 for 24 h. The test compound and lipopolysaccharides (LPS) (Sigma) (0.5 µg/mL) were then added to each well and incubated for another 18 h. Then, 50 µL of cells culture supernatant was taken, 50 µL of the Griess reagent (reagent A and reagent B, Sigma) was added in triplicate, and NO production was evaluated in each well. After 5 min of incubation, the absorbances of samples were measured at 570 nm with Envision multilabel plate reader, and the corresponding contents were calculated by curve calibration.

T1 sequence (P22303 32-614, species assumed): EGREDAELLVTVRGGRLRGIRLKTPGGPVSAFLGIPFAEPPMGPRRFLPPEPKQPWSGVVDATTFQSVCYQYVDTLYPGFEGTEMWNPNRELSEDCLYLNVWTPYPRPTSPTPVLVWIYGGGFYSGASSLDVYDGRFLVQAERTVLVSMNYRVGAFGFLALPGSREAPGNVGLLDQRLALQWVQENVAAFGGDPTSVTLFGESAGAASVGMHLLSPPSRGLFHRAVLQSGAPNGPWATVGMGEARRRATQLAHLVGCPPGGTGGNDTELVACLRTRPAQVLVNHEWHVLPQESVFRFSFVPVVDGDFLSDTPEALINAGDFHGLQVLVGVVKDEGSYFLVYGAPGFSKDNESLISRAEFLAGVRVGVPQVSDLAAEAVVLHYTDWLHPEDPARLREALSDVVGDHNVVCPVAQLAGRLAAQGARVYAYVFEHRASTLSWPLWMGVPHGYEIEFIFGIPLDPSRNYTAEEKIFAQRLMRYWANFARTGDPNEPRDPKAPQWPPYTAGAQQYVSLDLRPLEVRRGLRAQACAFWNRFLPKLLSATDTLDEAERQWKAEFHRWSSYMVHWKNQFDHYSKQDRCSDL

SMILES	pIC50 (acetylcholinesterase)	bioactivity in a panel of biological activity assays, including anti-inflammatory activity [2]	anti-acetylcholinesterase activity IC50 (acetylcholinesterase)	also measured
COC(C)(C)C(O)CCC(C)=CCOc1c2ccoc2cc2oc(=O)ccc12 (stereo not shown) [6′-hydroxy-7′-methoxybergamottin]	4.88	–	–	–
CCCCC[C@@H]1Cc2cc(O)c(C(=O)O)c(O)c2[C@@H](c2[nH]c3ccccc3c2CC(=O)OC)O1 [Compound 1, Penisimplicin A]	–	devoid of any bioactivities	–	pIC50 [1]: 5.20
CCCCCC(O)Cc1cc(O)c(C(=O)O)c(O)c1C1CCC2C(=O)NC(CC(C)C)C(=O)N21 (stereo not shown) [Compound 2, Penisimplicin B]	–	devoid of any bioactivities	–	–
C=C1CCC[C@@]2(C)C[C@@]3([C@@]45C[C@]6(C)CCCC(=C)[C@H]6CC4=C(C)C(=O)O5)OC(=O)C(C)=C3C[C@H]12 [biatractylolide]	–	–	6.5458 µg/mL	–
COC1=CC(=O)c2c(O)c3c(c(-c4c(OC)cc5c(c4O)C(=O)c4c(O)cc(C)cc4C5=O)c2C1=O)C[C@@H](C)O[C@H]3C [floribundiquinone B]	–	–	5.95 µg/mL	–
CC(C)=CCOc1c2ccoc2cc2oc(=O)ccc12 [isoimperatorin]	4.64	–	–	–

Source: PMC10856265, “Penisimplicins A and B: Novel Polyketide–Peptide Hybrid Alkaloids from the Fungus Penicillium simplicissimum JXCC5” (Molecules, 2024)
